Measurements as given in patent US6933304B2, “Heteroarylalkanoic acids as integrin receptor antagonists” (Pharmacia Corporation, priority 2000, dated 2005).

Biological target: T1, Human vitronectin receptor αVβ3 (Homo sapiens, UniProt P05106+P06756)
T1 construct: Human vitronectin receptors αVβ3 and αVβ5 were purified from human placenta; from tissue; host or cells: human placenta
Assay: Vitronectin adhesion assay (solid phase receptor assay)
Type: binding
Details: positive control included on each plate; read-out: IC50 αVβ3 antagonist (positive control)
Protocol: Human vitronectin receptors αVβ3 and αVβ5 were purified from human placenta as previously described [Pytela et al., Methods in Enzymology, 144:475-489 (1987)]. Human vitronectin was purified from fresh frozen plasma as previously described [Yatohgo et al., Cell Structure and Function, 13:281-292 (1988)]. Biotinylated human vitronectin was prepared by coupling NHS-biotin from Pierce Chemical Company (Rockford, Ill.) to purified vitronectin as previously described [Charo et al., J. Biol. Chem., 266(3):1415-1421 (1991)]. Assay buffer, OPD substrate tablets, and RIA grade BSA were obtained from Sigma (St. Louis, Mo.). Anti-biotin antibody was obtained from Sigma (St. Louis, Mo.). Nalge Nunc-Immuno microtiter plates were obtained from Nalge Company (Rochester, N.Y.).
This assay was essentially the same as previously reported [Niiya et al., Blood, 70:475-483 (1987)]. […] The plate was read with a microtiter plate reader at a wavelength of 450 nm and when the maximum-binding control wells reached an absorbance of about 1.0, the final A450 were recorded for analysis. The data were analyzed using a macro written for use with the EXCEL spreadsheet program. The mean, standard deviation, and % CV were determined for duplicate concentrations. […]

T1 sequence (P06756 31-889 limits assumed): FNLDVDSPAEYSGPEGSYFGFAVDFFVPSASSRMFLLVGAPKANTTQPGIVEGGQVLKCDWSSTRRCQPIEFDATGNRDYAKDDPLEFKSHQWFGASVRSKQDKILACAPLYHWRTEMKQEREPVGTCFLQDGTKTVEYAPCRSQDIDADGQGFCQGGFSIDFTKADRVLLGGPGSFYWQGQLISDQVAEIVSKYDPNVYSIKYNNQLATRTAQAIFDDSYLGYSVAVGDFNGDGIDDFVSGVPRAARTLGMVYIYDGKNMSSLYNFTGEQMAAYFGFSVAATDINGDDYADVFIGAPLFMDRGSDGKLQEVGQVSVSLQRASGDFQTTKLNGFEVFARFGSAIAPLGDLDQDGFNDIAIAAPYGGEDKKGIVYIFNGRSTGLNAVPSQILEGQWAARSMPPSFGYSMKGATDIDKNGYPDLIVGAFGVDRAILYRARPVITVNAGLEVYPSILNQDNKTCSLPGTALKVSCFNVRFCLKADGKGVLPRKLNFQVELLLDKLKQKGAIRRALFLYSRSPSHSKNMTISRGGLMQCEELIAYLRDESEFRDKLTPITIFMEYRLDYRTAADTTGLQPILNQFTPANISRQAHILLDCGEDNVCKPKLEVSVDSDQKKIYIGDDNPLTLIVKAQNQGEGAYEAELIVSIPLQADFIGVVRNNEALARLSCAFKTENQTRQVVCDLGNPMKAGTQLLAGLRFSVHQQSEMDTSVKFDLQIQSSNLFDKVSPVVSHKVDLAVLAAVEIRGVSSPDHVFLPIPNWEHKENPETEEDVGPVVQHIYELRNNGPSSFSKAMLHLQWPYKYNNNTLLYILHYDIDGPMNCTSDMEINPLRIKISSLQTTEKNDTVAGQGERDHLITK
T1 sequence (P06756 891-1048 partner limits assumed): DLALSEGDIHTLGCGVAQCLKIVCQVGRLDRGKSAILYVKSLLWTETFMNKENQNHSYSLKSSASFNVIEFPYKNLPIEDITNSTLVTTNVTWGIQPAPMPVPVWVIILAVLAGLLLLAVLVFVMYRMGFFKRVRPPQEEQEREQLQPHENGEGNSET
T1 sequence (P05106 27-788): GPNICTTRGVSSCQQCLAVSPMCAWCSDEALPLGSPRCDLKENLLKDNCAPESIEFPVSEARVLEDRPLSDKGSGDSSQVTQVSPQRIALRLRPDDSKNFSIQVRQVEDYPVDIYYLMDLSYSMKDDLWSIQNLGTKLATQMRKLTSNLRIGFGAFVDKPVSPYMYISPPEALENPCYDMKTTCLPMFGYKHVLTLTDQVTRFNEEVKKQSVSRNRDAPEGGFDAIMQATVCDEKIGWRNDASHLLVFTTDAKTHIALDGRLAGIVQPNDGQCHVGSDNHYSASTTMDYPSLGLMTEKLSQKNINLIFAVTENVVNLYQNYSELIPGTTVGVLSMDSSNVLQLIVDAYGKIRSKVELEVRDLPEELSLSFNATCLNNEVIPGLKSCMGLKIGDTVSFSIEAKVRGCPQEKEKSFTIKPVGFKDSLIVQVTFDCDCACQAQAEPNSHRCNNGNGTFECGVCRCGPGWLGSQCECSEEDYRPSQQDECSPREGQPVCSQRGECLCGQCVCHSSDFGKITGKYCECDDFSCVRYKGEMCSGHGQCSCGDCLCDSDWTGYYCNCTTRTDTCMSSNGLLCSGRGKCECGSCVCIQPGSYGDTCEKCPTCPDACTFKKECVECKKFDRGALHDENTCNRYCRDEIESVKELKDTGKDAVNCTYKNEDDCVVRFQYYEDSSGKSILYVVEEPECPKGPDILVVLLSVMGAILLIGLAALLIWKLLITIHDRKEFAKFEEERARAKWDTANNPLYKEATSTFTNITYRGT

Substance “β-[[2-[[5-[(aminoiminomethyl)amino]-1-oxopentyl]amino]-1-oxoethyl]amino]-3-pyridinepropanoic acid” has an IC50 of 3 to 10 nM.
